Drawing on BigSolDB 2.1, this text covers solubility (mole fraction) for two compounds.

In general, solubility (mole fraction) refers to solubility expressed as the solute's share of all molecules.

Regarding `Cc1cc(O)c2c(c1)C(=O)c1cc(O)cc(O)c1C2=O`, the solubility (mole fraction) reads like this: (in ethanol, 283.15 K) 8.37e-05; (in ethanol, 288.15 K) 9.39e-05; (in ethanol, 293.15 K) 0.000112; (in ethanol, 298.15 K) 0.000132; (in ethanol, 303.15 K) 0.00015; (in ethanol, 308.15 K) 0.00017. The same compound came in with a solubility (mole fraction) (in ethanol, 313.15 K) of 0.000203; a solubility (mole fraction) (in ethanol, 318.15 K) of 0.000231; a solubility (mole fraction) (in ethanol, 323.15 K) of 0.000268; a solubility (mole fraction) (in water, 283.15 K) of 3.2e-08; a solubility (mole fraction) (in water, 288.15 K) of 4.6e-08; a solubility (mole fraction) (in water, 293.15 K) of 6e-08. The solubility (mole fraction) reads like this: (in water, 298.15 K) 8.2e-08; (in water, 303.15 K) 1e-07; (in water, 308.15 K) 1.32e-07; (in water, 313.15 K) 1.79e-07; (in water, 318.15 K) 2.15e-07; (in water, 323.15 K) 2.79e-07.

On to `O=C1c2cccc(O)c2C(=O)c2c(O)cc(CO)cc21`, for which the solubility (mole fraction) stood at 2.21e-05 (in ethanol, 283.15 K); 2.58e-05 (in ethanol, 288.15 K); 3.15e-05 (in ethanol, 293.15 K); 3.83e-05 (in ethanol, 298.15 K); 4.45e-05 (in ethanol, 303.15 K); 5.2e-05 (in ethanol, 308.15 K). The same compound gave a solubility (mole fraction) (in ethanol, 313.15 K) of 6.32e-05; a solubility (mole fraction) (in ethanol, 318.15 K) of 7.71e-05; a solubility (mole fraction) (in ethanol, 323.15 K) of 9e-05; a solubility (mole fraction) (in water, 283.15 K) of 3.32e-07; a solubility (mole fraction) (in water, 288.15 K) of 4.51e-07; a solubility (mole fraction) (in water, 293.15 K) of 5.84e-07. The solubility (mole fraction) by setting is: (in water, 298.15 K) 8.17e-07; (in water, 303.15 K) 1.15e-06; (in water, 308.15 K) 1.58e-06; (in water, 313.15 K) 2.1e-06; (in water, 318.15 K) 2.72e-06; (in water, 323.15 K) 3.9e-06.
